Test results: patent publication US10035778B2, “Meta-azacyclic amino benzoic acid derivatives as pan integrin antagonists” (Saint Louis University, priority 2015, dated 2018)

Key:
Format in all cases: in vivo
[1] = IV cassette pharmacokinetic study in female Sprague-Dawley rats (PRESCOS, LLC); settings: plasma; female Sprague-Dawley rat, 1 mg/kg IV cassette, sampling to 8 h (PRESCOS); read-out: plasma t½ after 1 mg/kg iv bolus dose in rat (converted)
Description: Similar rat PK studies were conducted by PRESCOS, LLC (San Diego, Calif.) for comparison compounds C19-C28. Female Sprague-Dawley rats with an initial body weight of 195 to 220 g were used. Cassette formulations with 1 mg/kg/compound in 40/60 glycerol formal/saline were administered intravenously to three rats. The dosing volume for each animal was 5 mL/kg body weight. Blood samples were collected via a jugular vein catheter at 0.017, 0.25, 0.5, 1, 2, 4 and 8 hours post-dose into K2EDTA tubes. Animals were euthanized with CO2 at the end of the experiment. Sample processing and compound measurement by LC/MS/MS was performed by HT Laboratories (San Diego, Calif.).

[2] = IV cassette pharmacokinetic study in male Sprague-Dawley rats (Saint Louis University); settings: plasma; male Sprague-Dawley rat, 1 mg/kg IV cassette, sampling to 24 h; read-out: plasma t½ after 1 mg/kg IV bolus dose in rat (converted)
Description: (§1) A minimally sufficient volume of dimethylsulfoxide (DMSO) was added to each test compound to achieve solubilization. For intravenous (IV) delivery, compounds were then formulated as solutions in glycerol formal: saline (either 20:80 or 40:60 v/v) (Sigma Chemicals, St. Louis). For oral (PO) administration, compounds were formulated with 0.5% methylcellulose. Five to six compound solutions were combined into a singled mixed solution for IV and PO cassette administration with final DMSO concentrations <0.6% or <1.2%, for the IV and PO cassettes, respectively. Analytes were detected in test samples using an LC/MS/MS (liquid chromatography/mass spectrometry) system consisting of an LC-20AD pump (Shimadzu, Kyoto, Japan), an HTC PAL autosampler (Leap technologies, Carrboro, N.C.), and a Sciex API-4000 mass spectrometer in ESI mode (AB Sciex, Foster City, Calif.). An Amour C18 reverse phase column (Analytical Sales and Services, Pompton Plains, N.J.) was used for chromatographic separation.
(§2) Pharmacokinetic (PK) studies conducted at Saint Louis University used male Sprague-Dawley rats with an initial body weight of 200 to 220 g. IV PK studies were performed with the following compounds: Examples 1-3 and 5-17 and comparison compounds C12-C18, C29, and C30. Animals were allowed free access to food and water. Rats were individually housed and connected to jugular vein catheters. Each cassette formulation was administered intravenously to two rats (1 mL/kg body weight). Each cassette formulation contained 5-6 compounds at 1 mg/kg in either 20:80 or 40/60 glycerol formal/saline (v/v). Blood was collected manually via the catheter into lithium-heparin tubes at 0.017, 0.083, 0.5, 1, 2, 4, 6 and 24 hours post-dose. Animals were euthanized with CO2 at the end of the experiment.
(§3) Internal standard was added to all samples at 200 ng/mL (final), as well as 150 μL of acetonitrile. Plasma samples (50 μL total volume) were diluted with control nave rat plasma as appropriate to bring the sample measurement into the linear dynamic range of the standard curve. The samples were capped and mixed on a multi-plate vortexer for 5 minutes and centrifuged for 5 minutes at 3200 rmp. The supernant was transferred to 96-well sample plate and capped for LC/MS/MS analysis. Compounds were optimized and monitored for their respective MRM transitions. The mobile phases consisted of 0.1% formic acid (aqueous) and 100% acetonitrile (organic) with an Amour C18 reverse phase column (2.1×30 mm, 5 micron) at a flow rate of 0.35 mL/min. The starting phase was 10% acetonitrile for the 0.9 minutes then increased to 90% acetonitrile over 0.4 minutes, and was maintained for an additional 0.2 minutes before returning to 10% acetonitrile over 0.4 minutes. The 10% acetonitrile was held for an additional 1.6 minutes. Peak areas were integrated using Analyst 1.5.1 (AB Sciex, Foster City, Calif.).

[3] = Oral (PO) cassette pharmacokinetic study in male Sprague-Dawley rats; settings: plasma; male Sprague-Dawley rat, 2 mg/kg oral gavage cassette in 0.5% methylcellulose; read-out: AUC (0-inf) after a 2 mg/kg PO dose in rat
Description: as §1, §2
Oral PK studies were conducted with the following compounds: Examples 1-3 and 5-17 and comparison compounds C12, C14-16 and C29-30. The PO cassette formulations were administered via oral gavage to two rats (10 mL/kg body weight) containing 5-6 compounds per cassette. The oral dose was administered at 2 mg/kg/compound in 0.5% methylcellulose. Blood collection time points were 0.25, 0.5, 1, 2, 4, 6 and 24 hours post-dose into lithium-heparin tubes. Animals were euthanized with CO2 at the end of the experiment.
as §3

half-life [1] [min] | half-life [2] [min] | AUC(0-inf) [3] [ng·h/mL] | Structure (SMILES)
18 | – | – | O=C(O)C[C@H](NC(=O)CNC(=O)c1cc(O)cc(NC2=NCC(O)CN2)c1)c1cc(Br)cc(C2(C(F)F)CC2)c1 (stereo partly shown) [Example C28]
15 | – | – | N#CC1(c2cc(Cl)cc([C@H](CC(=O)O)NC(=O)CNC(=O)c3cc(O)cc(NC4=NCC(O)CN4)c3)c2)CCOCC1 (stereo partly shown) [Example C26]
16.8 | – | – | CC(O)(c1cc(Cl)cc([C@H](CC(=O)O)NC(=O)CNC(=O)c2cc(O)cc(NC3=NCC(O)CN3)c2)c1)C(F)(F)F (stereo partly shown) [Example C24]
– | 96 | < 1 | NC(=O)c1cc(Cl)cc([C@H](CC(=O)O)NC(=O)CNC(=O)c2cc(O)cc(NC3=NCC(O)CN3)c2)c1 (stereo partly shown) [Example C30, reference compound]
– | < 4.8 | < 1 | O=C(O)C[C@H](NC(=O)CNC(=O)c1cc(O)cc(NC2=NCC(O)CN2)c1)c1ccccc1 (stereo partly shown) [Example C29, reference compound]
12.6 | – | – | CC(C)(c1cc(Cl)cc([C@H](CC(=O)O)NC(=O)CNC(=O)c2cc(O)cc(NC3=NCC(O)CN3)c2)c1)C(F)(F)F (stereo partly shown) [Example C23]
13.8 | – | – | N#CC1(c2cc(Cl)cc([C@H](CC(=O)O)NC(=O)CNC(=O)c3cc(O)cc(NC4=NCC(O)CN4)c3)c2)CCC1 (stereo partly shown) [Example C25]
12.6 | – | – | CC(O)(c1cc([C@H](CC(=O)O)NC(=O)CNC(=O)c2cc(O)cc(NC3=NCC(O)CN3)c2)cc(C(F)(F)F)c1)C(F)(F)F (stereo partly shown) [Example C27]

Further lines, the compound ahead of its results:

Structure (SMILES) | half-life [1] [min] | half-life [2] [min] | AUC(0-inf) [3] [ng·h/mL]
CC(C)(O)c1cc([C@H](CC(=O)O)NC(=O)CNC(=O)c2cc(O)cc(NC3=NCC(O)CN3)c2)cc(C(F)(F)F)c1 (stereo partly shown) [Example C21] | 90 | – | –
CC(C)(C)c1cc(Br)cc([C@H](CC(=O)O)NC(=O)CNC(=O)c2cccc(NC3=NCCN3)c2)c1 [Example C18, reference compound] | – | 72 | –
CC(C)(O)c1cc(Cl)cc([C@H](CC(=O)O)NC(=O)CNC(=O)c2cc(O)cc(NC3=NCC(O)CN3)c2)c1 (stereo partly shown) [Example C16, reference compound] | – | 96 | 62
CC(C)(C)c1cc(Br)c(O)c([C@H](CC(=O)O)NC(=O)CNC(=O)c2cc(O)cc(NC3=NCC(O)CN3)c2)c1 (stereo partly shown) [Example C13, reference compound] | – | 66 | –
O=C(O)C[C@H](NC(=O)CNC(=O)c1cc(O)cc(NC2=NCC(O)CN2)c1)c1cc(Cl)cc(C2(CF)CCOCC2)c1 (stereo partly shown) [Example C22] | 18 | – | –
CC(C)(C)c1cc(Br)cc([C@H](CC(=O)O)NC(=O)CNC(=O)c2cc(O)cc(NC3=NCC(O)CN3)c2)c1 (stereo partly shown) [Example C12, reference compound] | – | 30 | 205
CC(C)(C#N)c1cc(Br)cc([C@H](CC(=O)O)NC(=O)CNC(=O)c2cc(O)cc(NC3=NCC(O)CN3)c2)c1 (stereo partly shown) [Example C19] | 25.8 | – | –
CC(C)(C)c1cc(C#N)cc([C@H](CC(=O)O)NC(=O)CNC(=O)c2cc(O)cc(NC3=NCC(O)CN3)c2)c1 (stereo partly shown) [Example C20] | 22.8 | – | –
CC(C)(C)c1cc(Br)cc([C@H](CC(=O)O)NC(=O)CNC(=O)c2cccc(NC(=N)N)c2)c1 [Example C17, reference compound] | – | 48 | –
CC(C)(C)c1cc(Br)cc([C@H](CC(=O)O)NC(=O)CNC(=O)c2cc(O)cc(NC3=NCC(O)CN3)c2)c1O (stereo partly shown) [Example C14, reference compound] | – | 60 | 224
CC(C)(O)c1cc(Br)cc([C@H](CC(=O)O)NC(=O)CNC(=O)c2cc(O)cc(NC3=NCC(O)CN3)c2)c1 (stereo partly shown) [Example C15, reference compound] | – | 36 | 87
